In patent US6613769B1, “Tryptase inhibitors” (Max-Planck-Gesellschaft zur Föderung der Wissenschaften. …, priority 1998, dated 2003) one finds Ki data, which are given here for 9 compounds.

Counter-ions that a name gives are not always drawn.

This assay addresses T1, human tryptase (Homo sapiens, UniProt P20231).
T1 construct: from tissue; host or cells: human lung tissue
Description: Inhibition of human tryptase: cleavage of chromogenic substrate tos-Gly-Pro-Arg-pNA, equilibrium conditions. It counts as biochemical. Conditions: tryptase from human lung tissue; 50 μg of heparin/ml; in the presence of substrate tos-Gly-Pro-Arg-pNA, 405 nm; read-out: Kiapp (apparent dissociation constant). An excerpt:
The documented pathophysiological effects of mast cell tryptase are brought about directly by the enzymic activity of the protease. Accordingly, they are reduced or blocked by inhibitors which inhibit the enzymatic activity of the tryptase. The equilibrium dissociation constant Ki of the enzyme-inhibitor complex is a suitable measure of the affinity of a reversible inhibitor for the target protease. This Ki value can be determined by measuring the effect of the inhibitor on the tryptase-induced cleavage of a chromogenic peptide-p-nitroanilide substrate.
The dissociation constants of the tryptase-inhibitor complexes are determined under equilibrium conditions in accordance with the general recommendations of Bieth (Bieth JG, Pathophysiological interpretation of kinetic constants of protease inhibitors, Bull. Europ. Physiopath. Resp. 16:183-195, 1980) and the methods of Sommerhoff et al. (Sommerhoff CP et al., A. Kazal-type inhibitor of human mast cell tryptase: Isolation from the medical leech Hirudo medicinalis, characterization, and sequence analysis, Biol. Chem. Hoppe-Seyler 375: 685-694, 1994).
Human tryptase is prepared in a pure state from lung tissue; the specific activity of the isolated protease, determined by means of titration, is normally 85% of the theoretical value. Constant quantities of tryptase are incubated with increasing quantities of the inhibitors in the presence of 50 μg of heparin/ml for stabilizing the protease. After the equilibrium has been established between the reaction partners, the remaining enzyme activity is determined after adding the peptide-p-nitroanilide substrate tos-Gly-Pro-Arg-pNA, the cleavage of which is monitored at 405 nm over a period of 3 min. Alternatively, the residual enzymic activity can also be determined using fluorogenic substrates. The apparent dissociation constants Kiapp (i.e. in the presence of substrate) are subsequently ascertained by nonlinear regression by fitting the enzyme rates to the general equation for reversible inhibitors (Morrison JF, Kinetics of the reversible inhibition of enzyme-catalysed reactions by tight-binding inhibitors, Biochim. Biophys. Acta 185, 269-286, 1969):
V1/V0=131 {Et+lt+Kiapp−[(Et+lt+Kiapp)^2−4Etlt]^½}/2Et
In this equation, V1, and V0 are the rates in the presence and absence of the inhibitor, respectively, and Et and lt are the concentrations of the tryptase and of the inhibitor.
The apparent dissociation constants which were determined for the compounds according to the invention are given in Table A below, in which the numbers of the compounds correspond to the numbers of the compounds in the examples.

T1 sequence (P20231 31-275): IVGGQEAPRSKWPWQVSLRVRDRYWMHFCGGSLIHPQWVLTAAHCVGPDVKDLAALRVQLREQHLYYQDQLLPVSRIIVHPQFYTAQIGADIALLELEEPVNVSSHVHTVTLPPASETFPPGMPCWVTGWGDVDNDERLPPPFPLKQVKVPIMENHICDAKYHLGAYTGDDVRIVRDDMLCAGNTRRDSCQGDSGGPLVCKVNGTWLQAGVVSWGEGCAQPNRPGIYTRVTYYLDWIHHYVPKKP

For `NCc1cccc(C(=O)N2CCN(C(=O)c3cccc(C(=O)N4CCN(C(=O)c5cccc(CN)c5)CC4)n3)CC2)c1` [Compound 1, Pyridine-2,6-dicarbobis[4-(3-aminomethylbenzoyl)-1-piperazide]], the Ki was 3000 nM. As for `NCc1cccc(C(=O)NC2CCN(C(=O)c3cccc(C(=O)N4CCC(NC(=O)c5cccc(CN)c5)CC4)n3)CC2)c1` [Compound 11, Pyridine-2,6-dicarbobis[4-(3-aminomethylbenzoylamino)-1-piperidide]], the Ki came out at 30 nM. Next, `NCC1CCC(C(=O)NC2CCN(C(=O)c3cccc(C(=O)N4CCC(NC(=O)C5CCC(CN)CC5)CC4)n3)CC2)CC1` (stereo not drawn) [Compound 15, Pyridine-2,6-dicarbobis[4-(4-aminomethylcyclohexyl-carbonylamino)-1-piperidide]]: 3000 nM.

`NCC1CCC(C(=O)N2CCN(C(=O)Nc3ccc(Oc4ccc(NC(=O)N5CCN(C(=O)C6CCC(CN)CC6)CC5)cc4)cc3)CC2)CC1` (stereo not drawn) [Compound 17, bis{4-[4-(4-Aminomethyl)cyclohexanoylpiperazin-1-yl-]-carbonyl}-4,4′-diaminodiphenyl Ether Dihydrochloride]: the Ki was determined as 22000 nM.

With `NCc1cccc(C(=O)N2CCN(C(=O)Nc3ccc(Oc4ccc(NC(=O)N5CCN(C(=O)c6cccc(CN)c6)CC5)cc4)cc3)CC2)c1` [Compound 21, Bis{4-[4-(3-Aminomethyl)benzoylpiperazin-1-yl]-carbonyl}-4,4′-diaminodiphenyl Ether Dihydrochloride], the Ki was determined as 100 nM. Next, `NCC1CCC(C(=O)NC2CCN(C(=O)NC3CCC(CC4CCC(NC(=O)N5CCC(NC(=O)C6CCC(CN)CC6)CC5)CC4)CC3)CC2)CC1` (stereo not drawn) [Compound 23, di{4-[4-(4-Aminomethyl)cyclohexanoylamino]piperidin-1-ylcarbamoyl}cyclohexylmethane Dihydrochloride]: 800 nM; `CC(C)(c1ccc(OCC(=O)NCc2ccc(NC(=N)N)cc2)cc1)c1ccc(OCC(=O)NCc2ccc(NC(=N)N)cc2)cc1` [Compound 31, 2,2-bis-[4-(4-Guanidinylbenzylamino)carbonylmethoxy-phenyl]propane Dihydroacetate]: 200 nM. As for `CC(C)(c1ccc(OCC(=O)NCC(=O)NCCCCN)cc1)c1ccc(OCC(=O)NCC(=O)NCCCCN)cc1` [Compound 34, 2,2-bis-[4-(10-Amino-3,6-diaza-2,5-dioxodecyloxy)-phenyl]propane Dihydrochloride], the figure is 2000 nM; as for `CC(C)(c1ccc(OC(=O)N2CCN(C(=O)NCc3ccc(CN)cc3)CC2)cc1)c1ccc(OC(=O)N2CCN(C(=O)NCc3ccc(CN)cc3)CC2)cc1` [Compound 36, 2,2-bis-(4-[4-(4-Aminomethylbenzylcarbamoyl)-1-piperazinylcarbonyloxy]phenyl)propane Dihydrochloride], 28 nM.
